Test results from PubChem BioAssay (NCI).
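Grown in 96-well plates, cells were treated for 48 hours with each compound at five concentrations. Insufficient inhibition: endpoint recorded as highest concentration tested. At the GI50, growth is halved. TGI marks complete inhibition of growth.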

Tests used:
Experiment in all cases: inhibition of tumour cell growth, NCI panel, 48 h
[1] = system: 786-0 renal
[2] = system: A498 renal
[3] = system: A549 NSCLC
[4] = system: ACHN renal
[5] = system: CAKI-1 renal
[6] = system: CCRF-CEM leukemia
[7] = system: COLO 205 colon
[8] = system: DU-145 prostate
[9] = system: HCC-2998 colon
[10] = system: HCT-116 colon
[11] = system: HCT-15 colon
[12] = system: HOP-62 NSCLC
[13] = system: HOP-92 NSCLC
[14] = system: HS 578T breast
[15] = system: IGROV1 ovarian
[16] = system: K-562 leukemia
[17] = system: KM12 colon
[18] = system: LOX IMVI melanoma
[19] = system: M14 melanoma
[20] = system: MALME-3M melanoma
[21] = system: MCF7 breast
[22] = system: MDA-MB-435
[23] = system: MOLT-4 leukemia
[24] = system: NCI-H226 lung
[25] = system: NCI-H23 lung
[26] = system: NCI-H460 lung
[27] = system: NCI-H522 lung
[28] = system: NCI/ADR-RES ovarian
[29] = system: OVCAR-3 ovarian
[30] = system: OVCAR-4 ovarian
[31] = system: OVCAR-5 ovarian
[32] = system: OVCAR-8 ovarian
[33] = system: PC-3 prostate
[34] = system: RPMI-8226 leukemia
[35] = system: RXF 393 renal
[36] = system: SF-268 CNS
[37] = system: SF-295 CNS
[38] = system: SK-MEL-2 melanoma
[39] = system: SK-MEL-28 melanoma
[40] = system: SK-MEL-5 melanoma
[41] = system: SK-OV-3 ovarian
[42] = system: SN12C renal
[43] = system: SNB-19 CNS
[44] = system: SR leukemia
[45] = system: T-47D breast
[46] = system: TK-10 renal
[47] = system: U251 CNS
[48] = system: UACC-62 melanoma
[49] = system: UO-31 renal
[50] = system: BT-549 breast
[51] = system: HT29 colon
[52] = system: SW-620 colon
[53] = system: UACC-257 melanoma

SMILES: O=C1C(Cl)=C(Nc2cccc(Cl)c2)C(=O)N1Cc1ccccc1
- GI50 [1]: 3.85 µM
- TGI [1]: 16.2 µM
- GI50 [2]: 10.6 µM
- TGI [2]: 22.7 µM
- GI50 [3]: 16.1 µM
- TGI [3]: 39.9 µM
- GI50 [4]: 14 µM
- TGI [4]: 28.8 µM
- GI50 [5]: 5.06 µM
- TGI [5]: 27.7 µM
- GI50 [6]: 2.39 µM
- TGI [6]: > 100 µM
- GI50 [7]: 15.7 µM
- TGI [7]: > 100 µM
- GI50 [8]: 15.3 µM
- TGI [8]: 30.6 µM
- GI50 [9]: 4.59 µM
- TGI [9]: 18.1 µM
- GI50 [10]: 3.56 µM
- TGI [10]: 13.3 µM
- GI50 [11]: 10.8 µM
- TGI [11]: 27.4 µM
- GI50 [12]: 11.2 µM
- TGI [12]: 24.4 µM
- GI50 [13]: 5.36 µM
- TGI [13]: 26.3 µM
- GI50 [14]: 6.34 µM
- TGI [14]: 27.5 µM
- GI50 [15]: 8.15 µM
- TGI [15]: > 100 µM
- GI50 [16]: 2.9 µM
- TGI [16]: > 100 µM
- GI50 [17]: 11.5 µM
- TGI [17]: 26.9 µM
- GI50 [18]: 4.01 µM
- TGI [18]: 15.3 µM
- GI50 [19]: 6.73 µM
- TGI [19]: 22.5 µM
- GI50 [20]: 5.12 µM
- TGI [20]: 20.1 µM
- GI50 [21]: 14.9 µM
- TGI [21]: > 100 µM
- GI50 [22]: 2.26 µM
- TGI [22]: 7.17 µM
- GI50 [23]: 3.38 µM
- TGI [23]: > 100 µM
- GI50 [24]: 10.5 µM
- TGI [24]: 29.3 µM
- GI50 [25]: 5.94 µM
- TGI [25]: 23.4 µM
- GI50 [26]: 7.11 µM
- TGI [26]: 27.9 µM
- GI50 [27]: 14.2 µM
- TGI [27]: > 100 µM
- GI50 [28]: 6.87 µM
- TGI [28]: 24.7 µM
- GI50 [29]: 5.02 µM
- TGI [29]: 17.7 µM
- GI50 [30]: 22.3 µM
- TGI [30]: 67.4 µM
- GI50 [31]: 9.49 µM
- TGI [31]: 33.1 µM
- GI50 [32]: 4.63 µM
- TGI [32]: 32 µM
- GI50 [33]: 3.52 µM
- TGI [33]: 20.1 µM
- GI50 [34]: 1.37 µM
- TGI [34]: 7.9 µM
- GI50 [35]: 1.36 µM
- TGI [35]: 7 µM
- GI50 [36]: 6.76 µM
- TGI [36]: 22.2 µM
- GI50 [37]: 6.28 µM
- TGI [37]: 20.1 µM
- GI50 [38]: 21.7 µM
- TGI [38]: > 100 µM
- GI50 [39]: 19.5 µM
- TGI [39]: 55.5 µM
- GI50 [40]: 6.83 µM
- TGI [40]: 20.3 µM
- GI50 [41]: 15.7 µM
- TGI [41]: 35 µM
- GI50 [42]: 11.2 µM
- TGI [42]: 25.1 µM
- GI50 [43]: 14.5 µM
- TGI [43]: 55.1 µM
- GI50 [44]: 2.19 µM
- TGI [44]: 29.3 µM
- GI50 [45]: 33.8 µM
- TGI [45]: > 100 µM
- GI50 [46]: 13.9 µM
- TGI [46]: 32.3 µM
- GI50 [47]: 3.98 µM
- TGI [47]: 15.5 µM
- GI50 [48]: 12.4 µM
- TGI [48]: 27.5 µM
- GI50 [49]: 6.94 µM
- TGI [49]: 25.8 µM

SMILES: CN=C(N)N/N=C(\C)c1ccc2c(c1)Cc1cc(/C(C)=N/NC(N)=NC)ccc1-2
- GI50 [1]: 0.752 µM
- TGI [1]: > 100 µM
- GI50 [50]: 1.96 µM
- TGI [50]: 5.62 µM
- GI50 [5]: 2.07 µM
- TGI [5]: 5.37 µM
- GI50 [6]: 0.444 µM
- TGI [6]: > 100 µM
- GI50 [10]: 2.36 µM
- TGI [10]: > 100 µM
- GI50 [11]: 2.04 µM
- TGI [11]: > 100 µM
- GI50 [12]: 0.668 µM
- TGI [12]: > 100 µM
- GI50 [13]: 1.33 µM
- TGI [13]: 6.15 µM
- GI50 [14]: 0.725 µM
- TGI [14]: 3.76 µM
- GI50 [51]: 2.13 µM
- TGI [51]: > 20.8 µM
- GI50 [23]: 0.422 µM
- TGI [23]: > 100 µM
- GI50 [28]: 10.9 µM
- TGI [28]: > 100 µM
- GI50 [33]: 2.13 µM
- TGI [33]: 5.8 µM
- GI50 [42]: 0.254 µM
- TGI [42]: 0.781 µM
- GI50 [44]: 1.81 µM
- TGI [44]: > 100 µM
- GI50 [52]: 2.36 µM
- TGI [52]: 6.19 µM
- GI50 [45]: 2.02 µM
- TGI [45]: 5.47 µM
- GI50 [46]: 2.32 µM
- TGI [46]: 7.09 µM
- GI50 [53]: 3.23 µM
- TGI [53]: > 100 µM
- GI50 [48]: 2.48 µM
- TGI [48]: > 100 µM
